In ChEMBL document CHEMBL1201862, “PubChem BioAssay data set” (2004):
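Cultured in 96-well plates, cells were exposed to test compound for 48 hours across five concentrations. GI50 = concentration required for 50% inhibition of growth.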 Calls of active or inactive are those of the source. No stated cut-off is given here; in the data, active = GI50 up to about 1.1 µM and inactive = higher.

Experiments:
Test in all cases: growth of human tumour cells (NCI), 48 h
EKVX = tested on: EKVX
OVCAR-5 = tested on: OVCAR-5
SK-MEL-2 = tested on: SK-MEL-2
CCRF-CEM = tested on: CCRF-CEM
MOLT-4 = tested on: MOLT-4
PC-3 = tested on: PC-3
NCI-H522 = tested on: NCI-H522
OVCAR-4 = tested on: OVCAR-4
SNB-75 = tested on: SNB-75
HOP-92 = tested on: HOP-92
HT-29 = tested on: HT-29
ACHN = tested on: ACHN
MCF7 = tested on: MCF7
A498 = tested on: A498
RPMI-8226 = tested on: RPMI-8226
OVCAR-8 = tested on: OVCAR-8
Malme-3M = tested on: Malme-3M
HCT-15 = tested on: HCT-15
TK-10 = tested on: TK-10

SMILES | GI50 (EKVX) | GI50 (OVCAR-5) | GI50 (SK-MEL-2) | GI50 (CCRF-CEM) | GI50 (MOLT-4) | GI50 (PC-3) | GI50 (NCI-H522) | GI50 (OVCAR-4) | GI50 (SNB-75) | GI50 (HOP-92) | GI50 (HT-29) | GI50 (ACHN) | GI50 (MCF7) | GI50 (A498) | GI50 (RPMI-8226) | GI50 (OVCAR-8) | GI50 (Malme-3M) | GI50 (HCT-15) | GI50 (TK-10)
Cc1cnc2nc(-c3cccc4ccccc34)cc(O)c2c1 | 0.00282 µM (active) | 0.00351 µM (active) | 0.000335 µM (active) | 0.000692 µM (active) | 0.000955 µM (active) | 0.00121 µM (active) | 0.000261 µM (active) | 16.4 µM (inactive) | 0.000407 µM (active) | 0.182 µM (active) | 0.000412 µM (active) | 0.00119 µM (active) | 0.00121 µM (active) | 0.000352 µM (active) | 0.000487 µM (active) | 0.00251 µM (active) | 0.000289 µM (active) | 0.000454 µM | –
Nc1cccc(/C=C/C(=O)N2CCN(CCOC(c3ccccc3)c3ccccc3)CC2)c1 | 18.7 µM (inactive) | 19.1 µM (inactive) | 16.2 µM (inactive) | 10 µM (inactive) | 5.42 µM (inactive) | 14.7 µM (inactive) | 15 µM (inactive) | 12.4 µM (inactive) | 13.1 µM (inactive) | 12.9 µM (inactive) | 8.2 µM (inactive) | 16.1 µM (inactive) | 16.8 µM (inactive) | 17.5 µM (inactive) | 10.5 µM (inactive) | 17.8 µM (inactive) | 16.7 µM (inactive) | 16.3 µM | 15 µM (inactive)
O=P1(Oc2ccccc2)N(CCCl)CCN1c1ccccc1 (stereo not drawn) | 80.4 µM (inactive) | > 100 µM (inactive) | > 100 µM (inactive) | > 100 µM (inactive) | 61.8 µM (inactive) | > 100 µM (inactive) | > 100 µM (inactive) | 23.4 µM (inactive) | 34.8 µM (inactive) | > 100 µM (inactive) | > 100 µM (inactive) | > 100 µM (inactive) | 70.1 µM (inactive) | 55 µM (inactive) | > 100 µM (inactive) | > 100 µM (inactive) | > 100 µM (inactive) | > 100 µM | 81.5 µM (inactive)
CN(C)C(=S)Oc1ccc2ccc(=O)oc2c1 | > 100 µM (inactive) | > 100 µM (inactive) | > 100 µM (inactive) | – | > 100 µM (inactive) | > 100 µM (inactive) | > 100 µM (inactive) | > 100 µM (inactive) | > 100 µM (inactive) | > 100 µM (inactive) | > 100 µM (inactive) | > 100 µM (inactive) | > 100 µM (inactive) | > 100 µM (inactive) | > 100 µM (inactive) | > 100 µM (inactive) | > 100 µM (inactive) | > 100 µM | > 100 µM (inactive)
COc1cc2cc(C(=O)N3CC(COS(C)(=O)=O)c4c3cc([N+](=O)[O-])c3ccccc43)[nH]c2c(OC)c1OC (stereo not drawn) | > 31.6 µM (inactive) | 18.6 µM (inactive) | 7.71 µM (inactive) | 0.778 µM (active) | 0.407 µM (active) | 22.9 µM (inactive) | 2.99 µM (inactive) | > 31.6 µM (inactive) | > 24 µM (inactive) | > 31.6 µM (inactive) | 6.15 µM (inactive) | 0.547 µM (active) | 2 µM (inactive) | 10.7 µM (inactive) | 2.92 µM (inactive) | 2.15 µM (inactive) | – | > 31.6 µM | > 31.6 µM (inactive)
C=C(C)C1=CCC[C@]2(C1)N=C(OC)[C@@H](C(C)C)N=C2OC | > 100 µM (inactive) | > 100 µM (inactive) | > 100 µM (inactive) | 34.3 µM (inactive) | 28.7 µM (inactive) | > 100 µM (inactive) | 31.3 µM (inactive) | > 100 µM (inactive) | 51.2 µM (inactive) | 56 µM (inactive) | > 100 µM (inactive) | > 100 µM (inactive) | 92.7 µM (inactive) | > 100 µM (inactive) | 16.3 µM (inactive) | > 100 µM (inactive) | > 100 µM (inactive) | > 100 µM | > 100 µM (inactive)
CC(=O)OC1CCC2(C)C(CCC3C2CC(=O)C2(C)C3CC(N3CC3)C2C(C)=O)C1 (stereo not drawn) | 18.4 µM (inactive) | 37.4 µM (inactive) | 17.5 µM (inactive) | – | 2.11 µM (inactive) | 14.1 µM (inactive) | 12.2 µM (inactive) | 19.8 µM (inactive) | 17.2 µM (inactive) | 18.4 µM (inactive) | 22.6 µM (inactive) | 13.8 µM (inactive) | 15.4 µM (inactive) | 19.6 µM (inactive) | 18 µM (inactive) | 14 µM (inactive) | 18.7 µM (inactive) | 18.9 µM | 19.6 µM (inactive)
CC1(C)CCC2=C(O1)/C(=N\Nc1ccc(F)cc1)c1ccccc1C2=O | 22.4 µM (inactive) | 35.6 µM (inactive) | 32.3 µM (inactive) | 11.8 µM (inactive) | 35.3 µM (inactive) | 34.8 µM (inactive) | 61.9 µM (inactive) | 34.4 µM (inactive) | 22.2 µM (inactive) | 39.5 µM (inactive) | 18.9 µM (inactive) | 38.5 µM (inactive) | 27.3 µM (inactive) | 30.3 µM (inactive) | 40.4 µM (inactive) | 41.8 µM (inactive) | 30.6 µM (inactive) | 43.6 µM | 38.9 µM (inactive)
Cc1cccnc1N/C=C1\C(=O)NC(=O)N(C)C1=O | 44 µM (inactive) | > 100 µM (inactive) | > 100 µM (inactive) | – | > 100 µM (inactive) | > 100 µM (inactive) | 1.69 µM (inactive) | > 100 µM (inactive) | 35.9 µM (inactive) | 65.6 µM (inactive) | > 100 µM (inactive) | > 100 µM (inactive) | > 100 µM (inactive) | 12.3 µM (inactive) | – | > 100 µM (inactive) | 13 µM (inactive) | > 100 µM | > 100 µM (inactive)
CC(C)N(C(=O)c1ccc(NCc2cc(O)ccc2O)cc1)C(C)C | 14.7 µM (inactive) | 21.5 µM (inactive) | 22.3 µM (inactive) | 3.08 µM (inactive) | 15.2 µM (inactive) | 18.8 µM (inactive) | 1.59 µM (inactive) | 15.1 µM (inactive) | 24.8 µM (inactive) | 11.9 µM (inactive) | 18 µM (inactive) | 13.8 µM (inactive) | 23.9 µM (inactive) | 18 µM (inactive) | – | 14.4 µM (inactive) | 13.9 µM (inactive) | 16.8 µM | 15.6 µM (inactive)
C=C1CC23CCC4C(C)(C(=O)O)CCCC4(C)C2CCC1C3 (stereo not drawn) | 20.6 µM (inactive) | 95.3 µM (inactive) | 42.3 µM (inactive) | 25.1 µM (inactive) | – | 37.7 µM (inactive) | 23.8 µM (inactive) | 58.5 µM (inactive) | 47.8 µM (inactive) | 32.8 µM (inactive) | 42.7 µM (inactive) | 36.5 µM (inactive) | 47.3 µM (inactive) | 39.5 µM (inactive) | 47.4 µM (inactive) | 41.7 µM (inactive) | 94 µM (inactive) | 36.2 µM | 38.4 µM (inactive)
CN(C)CCNc1nc2ccccc2c2c1CCCC2 | 37.9 µM (inactive) | 30.4 µM (inactive) | 17.2 µM (inactive) | – | 23.2 µM (inactive) | 26.5 µM (inactive) | 16.3 µM (inactive) | 48.9 µM (inactive) | 15.7 µM (inactive) | 12.3 µM (inactive) | 22.8 µM (inactive) | 23.9 µM (inactive) | 14.8 µM (inactive) | 17.2 µM (inactive) | 20.5 µM (inactive) | 31.8 µM (inactive) | 16.3 µM (inactive) | 32 µM | 14.5 µM (inactive)
CCc1ccc(CCC(=O)O)nc1 | > 100 µM (inactive) | > 100 µM (inactive) | > 100 µM (inactive) | > 100 µM (inactive) | – | > 100 µM (inactive) | > 100 µM (inactive) | > 100 µM (inactive) | > 100 µM (inactive) | > 100 µM (inactive) | > 100 µM (inactive) | > 100 µM (inactive) | > 100 µM (inactive) | > 100 µM (inactive) | > 100 µM (inactive) | > 100 µM (inactive) | > 100 µM (inactive) | > 100 µM | > 100 µM (inactive)
COC1(OC)CCCCCCCCC(OC)(OC)CCCCCCCC1 | > 100 µM (inactive) | > 100 µM (inactive) | > 100 µM (inactive) | – | – | > 100 µM (inactive) | > 100 µM (inactive) | – | > 100 µM (inactive) | > 100 µM (inactive) | > 100 µM (inactive) | > 100 µM (inactive) | > 100 µM (inactive) | > 100 µM (inactive) | – | > 100 µM (inactive) | > 100 µM (inactive) | > 100 µM | > 100 µM (inactive)
Cc1cc(Cc2cc(C)c(NC(=O)C(=O)C3CCC4=C(SC5C=CC=CC5N4)C3=O)c(C(C)C)c2)cc(C(C)C)c1NC(=O)C(=O)C1CCC2=C(SC3C=CC=CC3N2)C1=O (stereo not drawn) | 52.7 µM (inactive) | > 100 µM (inactive) | 45.5 µM (inactive) | 46.5 µM (inactive) | 32.2 µM (inactive) | 25.1 µM (inactive) | 19.9 µM (inactive) | 33.7 µM (inactive) | 94.6 µM (inactive) | > 100 µM (inactive) | 58.6 µM (inactive) | 62.4 µM (inactive) | 62.5 µM (inactive) | > 100 µM (inactive) | 37.4 µM (inactive) | 29.7 µM (inactive) | – | 34.9 µM | > 100 µM (inactive)
O=S(=O)(O)c1cccc2cccc(/N=N/c3c(O)ccc4ccccc34)c12 | 92.3 µM (inactive) | > 100 µM (inactive) | > 100 µM (inactive) | > 100 µM (inactive) | > 100 µM (inactive) | > 100 µM (inactive) | > 100 µM (inactive) | > 100 µM (inactive) | > 100 µM (inactive) | > 100 µM (inactive) | > 100 µM (inactive) | > 100 µM (inactive) | > 100 µM (inactive) | > 100 µM (inactive) | – | > 100 µM (inactive) | > 100 µM (inactive) | > 100 µM | > 100 µM (inactive)
